The values below come from patent US9598387B2 (Southern Research Institute, priority 2012, dated 2017).

As usually defined, the IC50 is the concentration that inhibits the measured activity by half. In general, Ki refers to a dissociation constant, usually derived from enzyme kinetics or from competition with a known ligand. Low values mean a stronger hold on the target, high ones a looser hold on the target. What is called EC50 is the concentration at which the effect is half-maximal. As usually defined, the Emax is the maximal effect, on the per cent scale that the assay sets.

A value given as a limit tells only on which side of the number the result lay.

In assay [1] the target is human D2 dopamine receptors (Homo sapiens (Human), UniProt P14416). In words: Whole Cell Adenylyl Cyclase Assay, D2. In kind it is cell-based. As to conditions: inhibition of forskolin (100 μM) stimulated cAMP, normalized to quinpirole; compound conc ≥10× Ki (per compound); mean ± S.E.M. The method, then: The intrinsic activity of the compounds was evaluated by determining their ability to inhibit forskolin-dependent (100 μM) stimulation of adenylyl cyclase activity using a whole cell assay. A whole cell-cyclic AMP accumulation assay was performed with stably transfected HEK cells expressing human D2 or D3 dopamine receptors. This assay is an adaptation of an earlier published method (Su et al., Cyclic Nucleotide Res. 1976, 2, 257-285). Details regarding this method have been published (Chu, W. et al. Bioorg. Med. Chem. 2005, 13, 77-87; Taylor, M. et al. Synapse 2010, 64, 251-266). Confluent (60-80%) HEK cells transfected with recombinant D2-like dopamine receptors were grown in DMEM/10% fetal calf serum containing geneticin in […] flasks. The endogenous ATP pool is radioactively labeled by preincubating the cells in serum-free DMEM/25 mM Hepes medium containing 2 μCi/mL of [2,8-^3H]-adenine (20-Ci/mmol) in a 5% CO2 incubator at 37° C. for 75 min. The radioactive medium was removed by aspiration. Serum-free DMEM (5.6 mL) containing 25 mM HEPES, pH 7.4, and 0.1 mM of the phosphodiesterase inhibitor isobutylmethylxanthine was added to the flask. A […] aliquot of cells was removed and added to 50 μL of forskolin (100 μM) and 50 μL of test drug or quinpirole in DMEM-HEPES. The cells were incubated for 20 min at 37° C. (vortexing every 5 min). The reaction was terminated by the addition of 0.5 mL of 10% trichloroacetic acid (w/v) containing 1.0 mM unlabeled cyclic AMP as a recovery standard. Both the [^3H]-cyclic AMP and the [^3H]-ATP fractions were collected following separation using columns of Dowex AG-50W-X4 and alumina. The final yield of [^3H]-cyclic AMP is corrected for column recovery of unlabeled cyclic AMP determined spectrophotometrically (OD259). The results are reported as percent conversion of [^3H]-ATP into [^3H]-cyclic AMP. The values for the percent inhibition are reported as the actual percent of inhibition of the ^3H-cAMP accumulation relative to the assay performed in the absence of a test compound, minus basal activity. […] The percent maximum response is the value for the inhibition normalized to the value for the full agonist quinpirole.

The target in a further assay is D2LR (Homo sapiens (Human), UniProt P14416). In words: β-Arrestin Recruitment Assay, CHO-K1 DRD2L. It counts as cell-based. As to conditions: antagonist vs EC80 6 nM Pergolide, CHO-K1 DRD2L cells; read-out: D2 IC50. How it is done: (§1) Antagonist potency of the compounds against agonist induced recruitment of β-arrestin by D3R and D2LR was measured using DiscoverRx PathHunter eXpress kits. […] After incubation at 37° C. for 90 min, the DiscoveRx detection reagent was added, the plates were incubated at room temperature for 60 min and the luminescence was measured on a Synergy 4 plate reader (BioTek). The data were plotted and the agonist EC80 values were calculated using GraphPad Prism software. For antagonist activity, the cells were plated as described above and treated with multiple concentrations (starting from 500 nM, half log dilution, 10 dose points) of the test compounds in Plating Reagent with 0.1% DMSO.

The target of assay [2] is T1, D3R (Homo sapiens (Human), UniProt P35462). In words: β-Arrestin Recruitment Assay, U2OS DRD3. It counts as cell-based. As to conditions: for IC50: antagonist vs EC80 8 nM PD128907, U2OS DRD3 cells, read-out: D3 IC50; for D2 IC50/D3 IC50: ratio of β-arrestin IC50 values. The method, then:
as §1
In general terms: Recruitment of arrestin is a read-out of receptor activation apart from second messengers.

In assay [3] the target is T2, human D3 dopamine receptor (Homo sapiens (Human), UniProt P35462). The experiment in a line: Whole Cell Adenylyl Cyclase Assay, D3. As to conditions: inhibition of forskolin (100 μM) stimulated cAMP, normalized to quinpirole; compound conc ≥10× Ki (per compound); mean ± S.E.M. In kind it is cell-based.
Assay [4] deals with human D2-long dopamine receptor (Homo sapiens (Human), UniProt P14416). The experiment in a line: Radioligand binding (125I-IABN competition), D2. As to conditions: HEK cell membranes expressing human D2-long. The method, then: (§2) The affinities of the target compounds were determined using radioligand binding experiments. […] Competition curves were modeled for a single site. Data from competition dose-response curves were analyzed using Tablecurve program (Jandel). IC50 values were converted to equilibrium dissociation constants (Ki values) using the Cheng and Prusoff correction.

The target in assay [5] is T2, human D3 dopamine receptor. The experiment in a line: Radioligand binding (125I-IABN competition), D3. As to conditions: for Ki: 125I-IABN competition, HEK cell membranes expressing human D3; for D2/D3 (D3 selectivity ratio, D2 Ki/D3 Ki): calculated D2 Ki/D3 Ki. How it is done: as §2
In the next assay the target is human D2 receptors (Homo sapiens (Human), UniProt P14416). The experiment in a line: D2 Mitogenesis Functional Assay (3H-thymidine uptake, CHOp-D2 cells). It counts as cell-based.
Assay [6] concerns the target T1, D3R. In words: D3 Mitogenesis Functional Assay (3H-thymidine uptake, CHOp-D3 cells). In kind it is cell-based. The essentials:
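CHO cells expressing human D3, serum-starved 24 h, then given compound (agonist mode) or antagonist plus 30 nM quinpirole final for 16 h at 37 °C. A 2 h [3H]thymidine pulse was used for uptake.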

T2 sequence (P35462 whole entry): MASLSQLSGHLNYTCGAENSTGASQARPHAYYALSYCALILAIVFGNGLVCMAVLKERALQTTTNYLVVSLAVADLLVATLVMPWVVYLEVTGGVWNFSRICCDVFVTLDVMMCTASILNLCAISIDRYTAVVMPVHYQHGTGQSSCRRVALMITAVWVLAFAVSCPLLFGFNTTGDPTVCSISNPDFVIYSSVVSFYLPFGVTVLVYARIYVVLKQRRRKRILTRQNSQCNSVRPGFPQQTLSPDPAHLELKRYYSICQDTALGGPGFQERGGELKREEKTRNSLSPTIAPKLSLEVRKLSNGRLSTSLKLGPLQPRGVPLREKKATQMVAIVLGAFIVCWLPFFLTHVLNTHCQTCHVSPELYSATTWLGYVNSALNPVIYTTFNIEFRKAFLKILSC
T1 sequence (P35462 whole entry): as above
D2LR, sequence (P14416 whole entry): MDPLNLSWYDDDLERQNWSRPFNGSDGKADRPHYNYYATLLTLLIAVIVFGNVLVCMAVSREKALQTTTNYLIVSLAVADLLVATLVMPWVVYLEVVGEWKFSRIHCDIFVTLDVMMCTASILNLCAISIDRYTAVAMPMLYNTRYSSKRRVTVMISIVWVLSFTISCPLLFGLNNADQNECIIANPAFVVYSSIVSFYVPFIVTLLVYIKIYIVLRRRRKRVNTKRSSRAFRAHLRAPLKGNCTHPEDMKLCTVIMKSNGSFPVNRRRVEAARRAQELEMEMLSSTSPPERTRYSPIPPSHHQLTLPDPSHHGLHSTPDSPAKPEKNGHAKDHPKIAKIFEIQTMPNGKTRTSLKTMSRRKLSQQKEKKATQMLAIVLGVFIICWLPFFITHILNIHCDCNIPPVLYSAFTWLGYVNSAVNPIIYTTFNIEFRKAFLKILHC
human D2-long dopamine receptor, sequence (P14416 whole entry): as above
human D2 receptors, sequence (P14416 whole entry): as above
human D2 dopamine receptors, sequence (P14416 whole entry): as above

With `Cc1cc(N2CCN(CCCCNC(=O)N3CCN(c4ccccc4)CC3)CC2)nc(C(C)(C)C)n1` [Compound 5, N-(4-(4-(2-(tert-Butyl)-6-methylpyrimidin-4-yl)piperazin-1-yl)butyl)-4-phenylpiperazine-1-carboxamide], in assay [1], the “D2 Cyclase % Inhibition Normalized” value is 54.5 ± 4.5%. In addition, the IC50 on D2LR came out at 376 ± 31 nM. Besides, on D3R [2], the IC50 was 3.86 ± 2.51 nM and the “D2 IC50/D3 IC50” value is 97. In addition, the “D3 Cyclase % Inhibition Normalized” value in assay [3] is reported as 73.4 ± 11.0%. In assay [4], this molecule displayed a Ki of 366 ± 18 nM. Moreover, in assay [5], affinity was put at a Ki of 2.7 ± 0.1 nM and the “D2/D3 (D3 selectivity ratio, D2 Ki/D3 Ki)” value is 136.
In the case of `CC(C)(C)c1nc(N2CCN(CCCCNC(=O)N3CCN(c4ccccc4)CC3)CC2)cc(C(F)(F)F)n1` [Compound 8, N-(4-(4-(2-(tert-Butyl)-6-(trifluoromethyl)pyrimidin-4-yl)piperazin-1-yl)butyl)-4-phenylpiperazine-1-carboxamide], the “D2 Cyclase % Inhibition Normalized” value in assay [1] is listed as −4.8 ± 4.1%. For the same molecule, the IC50 was over 500 nM at D2LR, 6.15 ± 0.33 nM on D3R [2], 440 ± 160 nM on human D2 receptors (read-out: D2 Antagonist IC50) and 125 ± 37 nM at D3R [6] (read-out: D3 Antagonist IC50). In addition, the “D2 IC50/D3 IC50” value at D3R [2] was over 81. In addition, the EC50 on human D2 receptors (CHOp-D2 cells, stimulation of mitogenesis, read-out: D2 Agonist EC50) is over 10 µM; on D3R [6] (CHOp-D3 cells, stimulation of mitogenesis, read-out: D3 Agonist EC50), over 10 µM. Also, the Emax at 10 µM was under 1% on human D2 receptors (at 10 μM, % maximum stimulation vs quinpirole (100%), read-out: D2 Agonist Emax) and 3% on D3R [6] (at 10 μM, % maximum stimulation vs quinpirole (100%), read-out: D3 Agonist Emax). In addition, the “D2 Antagonist Imax” value on human D2 receptors (at 10 μM, inhibition of quinpirole stimulation of mitogenesis) was 100% at 10 μM. In addition, the “D3 Cyclase % Inhibition Normalized” value in assay [3] was determined as 60.7 ± 10.7%. Besides, the figures for the Ki in assay [4] and in assay [5] were 470 ± 34 nM and 2.7 ± 0.7 nM, respectively. Also, the “D3 Antagonist Imax” value at D3R [6] (inhibition of quinpirole stimulation of mitogenesis) was 88.2%. Moreover, the “D2/D3 (D3 selectivity ratio, D2 Ki/D3 Ki)” value in assay [5] is 174.
`COc1ccc2c(c1)CN(C(=O)NCCCCN1CCN(c3cc(C(F)(F)F)nc(C(C)(C)C)n3)CC1)C2` [Compound 40, N-(4-(4-(2-(tert-Butyl)-6-(trifluoromethyl)pyrimidin-4-yl)piperazin-1-yl)butyl)-5-methoxyisoindoline-2-carboxamide]: the “D2 Cyclase % Inhibition Normalized” value in assay [1] is recorded as −39.1 ± 12.5%. The IC50 at D2LR amounted to 157 ± 11 nM. At D3R [2], the IC50 is 0.8 ± 0.24 nM and the “D2 IC50/D3 IC50” value came to 196. The “D3 Cyclase % Inhibition Normalized” value in assay [3] turned out to be 30.0 ± 7.9%. This molecule showed a Ki in assay [4] of 994 ± 106 nM. For the same molecule, in assay [5], the inhibition constant (Ki) amounted to 2.3 ± 0.5 nM and the “D2/D3 (D3 selectivity ratio, D2 Ki/D3 Ki)” value is 432.
Consider `CC(C)(C)c1nc(N2CCN(CCCCNC(=O)N3CCc4c([nH]c5ccccc45)C3)CC2)cc(C(F)(F)F)n1` [Compound 55], for which, in assay [1], the “D2 Cyclase % Inhibition Normalized” value was determined as 6.3 ± 4.3%. Moreover, the IC50 at D2LR is over 500 nM. On D3R [2], the half-maximal inhibitory concentration (IC50) stood at 26.2 ± 10.2 nM and the “D2 IC50/D3 IC50” value is on record as over 19. Further, the “D3 Cyclase % Inhibition Normalized” value in assay [3] is 61.7 ± 6.4%. This molecule displayed a Ki in assay [4] of 536 ± 118 nM. Moreover, in assay [5], the Ki is 3 ± 0.2 nM and the “D2/D3 (D3 selectivity ratio, D2 Ki/D3 Ki)” value was 182.
In the case of `CN(C)Cc1c(C(=O)NCCCCN2CCN(c3cc(C(F)(F)F)nc(C(C)(C)C)n3)CC2)nc2ccccn12` [Compound 120, N-(4-(4-(2-(tert-Butyl)-6-(trifluoromethyl)pyrimidin-4-yl)piperazin-1-yl)butyl)-3-((dimethylamino)methyl)imidazo[1,2-a]pyridine-2-carboxamide], the “D2 Cyclase % Inhibition Normalized” value in assay [1] was found to be 8.9 ± 5.0%. The IC50 at D2LR came to 217 ± 10 nM. Moreover, on D3R [2], the half-inhibitory concentration (IC50) was 7.2 ± 3.68 nM and the “D2 IC50/D3 IC50” value was found to be 30. Moreover, the “D3 Cyclase % Inhibition Normalized” value in assay [3] was determined as 47.4 ± 4.4%. For the same molecule, in assay [4], the Ki worked out at 301 nM. In addition, in assay [5], the Ki came out at 28.8 ± 6.1 nM and the “D2/D3 (D3 selectivity ratio, D2 Ki/D3 Ki)” value is on record as 10.
